Results as given in US8268873B2 (priority 1999, dated 2012).
Read-outs that look alike come from different tables or passages of the source.

How the values were obtained:
human PBMC T cells = test: cells; format: cell-based; conditions: 72 h, read-out: T-cells (IC50)
human PBMC B cells = test: cells; format: cell-based; conditions: read-out: B-cells (IC50)
IMPDH human type II = IMPDH human type II (Homo sapiens, UniProt P12268); test: biochemical

SMILES | IC50 (human PBMC T cells) | IC50 (human PBMC B cells; Homo sapiens, 72 h) | Ki (IMPDH human type II) | other results
COc1cc(NC(=O)Nc2cccc(CNC(=O)OC[C@H](CC#N)NC(=O)OC(C)(C)C)c2)ccc1-c1cnco1 [Compound 10] | 100 to 1000 nM | – | – | –
COc1cc(NC(=O)Nc2cccc([C@H](C)NC(=O)O[C@H]3CCOC3)c2)ccc1C#N [Compound 185] | – | – | – | IC50 (human PBMC B cells): < 100 nM
COc1cc(NC(=O)Nc2cccc(CNC(=O)O[C@H](CN3CCCC3)c3ccccc3)c2)ccc1-c1cnco1 [Compound 98] | < 100 nM | < 100 nM | – | –
COc1cc(NC(=O)Nc2cccc(CNC(=O)OC3CCC[C@H]3N3CCOCC3)c2)ccc1-c1cnco1 (stereo partly shown) [Compound 80] | – | < 100 nM | – | –
CC[C@H](COC(=O)CN)OC(=O)NCc1cccc(NC(=O)Nc2ccc(-c3cnco3)c(OC)c2)c1 [Compound 95] | – | – | – | Ki (IMPDH human type II; IMPDH human type II, 200 μM IMP, 200 μM NAD, 37° C.): < 10 nM
CCC(CCC#N)OC(=O)NCc1cccc(NC(=O)Nc2ccc(-c3cnco3)c(OC)c2)c1 (stereo not shown) [Compound 45] | – | – | < 10 nM | –
CCN(C)CCC(OC(=O)NCc1cccc(NC(=O)Nc2ccc(-c3cnco3)c(OC)c2)c1)c1ccccc1 (stereo not shown) [Compound 139] | 100 to 1000 nM | 100 to 1000 nM | – | –
CC[C@H](CCC#N)OC(=O)NCc1cccc(NC(=O)Nc2ccc(-c3cnco3)c(OC)c2)c1 [Compound 89] | < 100 nM | < 100 nM | – | –
C=CC(COC(C)=O)OC(=O)NCc1cccc(NC(=O)Nc2ccc(-c3cnco3)c(OC)c2)c1 (stereo not shown) [Compound 133] | – | – | 10 to 50 nM | –
CC[C@@H](CC#N)OC(=O)NCc1cccc(NC(=O)Nc2ccc(-c3cnco3)c(OC)c2)c1 [Compound 88] | – | – | < 10 nM | –
